{"source": "ChEMBL document CHEMBL4270503", "about": "“Recent developments in small molecule therapies for renal cell carcinoma” (Eur J Med Chem, 2017)", "key": {"[1]": {"organism": "Homo sapiens", "experiment": "Antitumor activity in renal cell carcinoma patient with previous sunitinib treatment assessed as progression free survival", "format": "functional"}, "[2]": {"organism": "Homo sapiens", "experiment": "Antitumor activity in renal cell carcinoma patient with previous cytokine therapies assessed as progression free survival", "format": "functional"}, "[3]": {"organism": "Homo sapiens", "experiment": "Antitumor activity in patient with metastatic renal cell carcinoma assessed as progression free survival", "format": "functional"}, "[4]": {"organism": "Homo sapiens", "experiment": "Antitumor activity in patient with metastatic renal cell carcinoma assessed as overall survival", "format": "functional"}, "[5]": {"organism": "Homo sapiens", "experiment": "Antitumor activity in renal cell carcinoma patient without previous VEGFR TKI treatment assessed as progression free survival (reference value: 1.9 months)", "format": "functional"}, "[6]": {"organism": "Homo sapiens", "experiment": "Antitumor activity in renal cell carcinoma patient with 2 previous VEGFR TKI treatment assessed as progression free survival (reference value: 1.8 months)", "format": "functional"}, "[7]": {"test_system": "HUVEC", "experiment": "cells", "conditions": "Homo sapiens"}, "[8]": {"test_system": "HUVEC", "experiment": "cells", "conditions": "Homo sapiens", "remark": "listed apart in the source"}, "[9]": {"organism": "Homo sapiens", "experiment": "Antitumor activity in treatment-naive and cytokine-refractory patient with renal cell carcinoma assessed as progression free survival (reference value: 4.2 months)", "format": "functional"}, "[10]": {"organism": "Homo sapiens", "experiment": "Antitumor activity in patient with renal cell carcinoma assessed as overall survival during phase 3 non-inferiority trial", "format": "functional"}, "[11]": {"test_system": "CAKI-2", "experiment": "Antitumor activity against human Caki2 cells xenografted in nuded mouse assessed as inhibition of tumor growth at 10 mg/kg, po", "format": "functional", "conditions": "CAKI-2, po, read-out: TGI"}, "[12]": {"organism": "Homo sapiens", "experiment": "Antitumor activity in patient with renal cell carcinoma assessed as progression free survival during phase 3 non-inferiority trial", "format": "functional"}, "[13]": {"organism": "Homo sapiens", "experiment": "Antitumor activity in patient with renal cell carcinoma assessed as overall survival (reference value: 15.2 months)", "format": "functional"}, "[14]": {"organism": "Homo sapiens", "experiment": "Antitumor activity in patient with renal cell carcinoma assessed as progression free survival (reference value: 2.8 months)", "format": "functional"}, "[15]": {"organism": "Homo sapiens", "experiment": "Antitumor activity in patient with metastatic renal cell carcinoma assessed as progression free survival during phase 3 trial", "format": "functional"}, "[16]": {"organism": "Homo sapiens", "experiment": "Antitumor activity in patient with metastatic renal cell carcinoma assessed as objective response during phase 3 trial", "format": "functional"}, "[17]": {"organism": "Homo sapiens", "experiment": "Antitumor activity in patient with metastatic renal cell carcinoma assessed as overall survival during phase 3 trial", "format": "functional"}, "[18]": {"organism": "Homo sapiens", "experiment": "Antitumor activity in patient with renal cell carcinoma assessed as progression free survival during phase 2 trial", "format": "functional"}, "[19]": {"organism": "Homo sapiens", "experiment": "Antitumor activity in patient with metastatic renal cell carcinoma assessed as progression free survival co-treated with IFNalpha during phase 3 trial", "format": "functional"}}, "data": [{"smiles": "CNC(=O)c1ccccc1Sc1ccc2c(/C=C/c3ccccn3)n[nH]c2c1", "note": "[AXITINIB]", "values": [{"measurement": "Survival", "setting": "[1]", "result": 4.8, "unit": "months"}, {"measurement": "Survival", "setting": "[2]", "result": 12.1, "unit": "months"}]}, {"smiles": "COc1cc2nccc(Oc3ccc(NC(=O)C4(C(=O)Nc5ccc(F)cc5)CC4)cc3)c2cc1OC", "note": "[CABOZANTINIB]", "values": [{"measurement": "Survival", "setting": "[3]", "result": 7.4, "unit": "months"}]}, {"smiles": "CO[C@H]1C[C@@H]2CC[C@@H](C)[C@@](O)(O2)C(=O)C(=O)N2CCCC[C@H]2C(=O)O[C@H]([C@H](C)C[C@@H]2CC[C@@H](OCCO)[C@H](OC)C2)CC(=O)[C@H](C)/C=C(\\C)[C@@H](O)[C@@H](OC)C(=O)[C@H](C)C[C@H](C)/C=C/C=C/C=C/1C", "note": "[EVEROLIMUS]", "values": [{"measurement": "Survival", "setting": "[4]", "result": 16.5, "unit": "months"}, {"measurement": "Survival", "setting": "[3]", "result": 3.9, "unit": "months"}, {"measurement": "Survival", "setting": "[5]", "result": 5.4, "unit": "months"}, {"measurement": "Survival", "setting": "[6]", "result": 4, "unit": "months"}]}, {"smiles": "Cc1ccc(Nc2nccc(N(C)c3ccc4c(C)n(C)nc4c3)n2)cc1S(N)(=O)=O", "note": "[PAZOPANIB]", "values": [{"measurement": "IC50", "setting": "[7]", "result": 21, "unit": "nM"}, {"measurement": "IC50", "setting": "[8]", "result": 720, "unit": "nM"}, {"measurement": "Survival", "setting": "[9]", "result": 9.2, "unit": "months"}, {"measurement": "Survival", "setting": "[10]", "result": 28.3, "unit": "months"}, {"measurement": "inhibition in vivo at 10 mg/kg", "setting": "[11]", "result": 77, "unit": "%"}, {"measurement": "Survival", "setting": "[12]", "result": 8.4, "unit": "months"}]}, {"smiles": "CNC(=O)c1cc(Oc2ccc(NC(=O)Nc3ccc(Cl)c(C(F)(F)F)c3)cc2)ccn1", "note": "[SORAFENIB]", "values": [{"measurement": "Survival", "setting": "[13]", "result": 17.8, "unit": "months"}, {"measurement": "Survival", "setting": "[1]", "result": 3.4, "unit": "months"}, {"measurement": "Survival", "setting": "[2]", "result": 6.5, "unit": "months"}, {"measurement": "Survival", "setting": "[14]", "result": 5.5, "unit": "months"}]}, {"smiles": "CCN(CC)CCNC(=O)c1c(C)[nH]c(/C=C2\\C(=O)Nc3ccc(F)cc32)c1C", "note": "[SUNITINIB]", "values": [{"measurement": "Survival", "setting": "[15]", "result": 11, "unit": "months"}, {"measurement": "Activity", "setting": "[16]", "result": 31, "unit": "%"}, {"measurement": "Survival", "setting": "[10]", "result": 29.1, "unit": "months"}, {"measurement": "Survival", "setting": "[17]", "result": 26.4, "unit": "months"}, {"measurement": "Survival", "setting": "[18]", "result": 7.8, "unit": "months"}]}, {"smiles": "CO[C@H]1C[C@@H]2CC[C@@H](C)[C@@](O)(O2)C(=O)C(=O)N2CCCC[C@H]2C(=O)O[C@H]([C@H](C)C[C@@H]2CC[C@@H](OC(=O)C(C)(CO)CO)[C@H](OC)C2)CC(=O)[C@H](C)/C=C(\\C)[C@@H](O)[C@@H](OC)C(=O)[C@H](C)C[C@H](C)/C=C/C=C/C=C/1C", "note": "[TEMSIROLIMUS]", "values": [{"measurement": "Survival", "setting": "[15]", "result": 10.9, "unit": "months"}, {"measurement": "Survival", "setting": "[19]", "result": 8.4, "unit": "months"}]}]}
